SMILES,logP,solubility [mM]
CN(C(=O)C(Cl)Cl)c1ccc(O)cc1,1.78,–
Cc1cc(C)c(C#[N+][O-])c(C)c1,3.21,–
CC[C@H](C)C(=O)O[C@H]1C[C@H](O)C=C2C=C[C@H](C)[C@H](CC[C@@H](O)C[C@@H](O)CC(=O)[O-])[C@H]21.[Na+],-0.23,–
Brc1ccc(-c2ccccc2)cc1,4.96,–
CN(C)P(=O)(N1CCCC1)N1CCCC1,1.88,–
O=[N+]([O-])c1ccc2c(c1)Cc1cc([N+](=O)[O-])ccc1-2,3.35,–
CCCn1ccc(=O)c(O)c1,-0.17,–
Cc1cccc2c1ccc1ccccc12,5.08,–
Cc1cccc(C(C)C)c1,–,0.317
CC(C)c1cccc(OP(=O)(Oc2ccccc2)Oc2ccccc2)c1,5.31,–
C#CCN(C)C(C)Cc1ccc(F)cc1 (stereo not given),3,–
COc1cc(Cl)c(Cl)c(Cl)c1O,3.72,–
Cc1cc(Cl)ccc1OCC(=O)O,3.25,–
Cc1cc(OCCN(C)C)c(C(C)C)cc1OC1CCCCC1=O (stereo not given),3.63,–
O=C(O)CNCP(=O)(O)O,-3.4,–
CCCCCCOCCO,1.86,–
CN(C)P(=O)(N(C)C)N1CCCC1,0.82,–
CCOC(=O)C(C)OC(=O)c1cc(Oc2ccc(C(F)(F)F)cc2Cl)ccc1[N+](=O)[O-] (stereo not given),–,0.000217
CC(=O)Nc1cc(NS(=O)(=O)C(F)(F)F)c(C)cc1C,2.02,–
Nc1ccc(S(=O)(=O)O)c(N)c1,-4.65,–
OC(CN1C2CCOCC21)Cn1ccnc1 (stereo not given),0.07,–
O=C1C2=C(CCCC2)C(=O)N1c1ccc(Cl)cc1,3.32,–
Nc1ccc2[nH]ncc2c1,0.65,–
CSc1ccc2oc(N(N)CCC#N)nc2c1,1.5,–
CCCCCCCCCCCCCCCCCCCCCC(=O)O,–,4.7e-05
CC(=O)Nc1ncc2ncn(COCCO)c2n1,-1.33,–
CNCCC=C1c2ccccc2CCc2ccccc21,4.51,–

SMILES,logP,solubility [mM]
N#Cc1c(Cl)c(Cl)c(Cl)c(C#N)c1Cl,3.05,–
Cc1ccccc1C1=CCN(C)CC1,3.1,–
Clc1ccc2ccccc2c1,3.9,–
Cc1nc(N2CCOCC2)c(C#N)cc1-c1ccccc1,3.65,–
CN(C)c1ncc(-c2ccncc2)cc1C#N,2.13,–
S=C1NCCN1,-0.66,–
COc1cc(C(=O)NCc2ccc(OCCN(C)C)cc2)cc(OC)c1OC,2.29,–
OCc1c(Cl)cccc1Cl,2.02,–
CCCCC[C@H](O)/C=C/[C@@H]1[C@@H](C/C=C\CCCC(=O)O)[C@@H](O)C[C@H]1O,4.39,–
CCOc1cc(C=O)ccc1O,1.58,–
CCN1CCC[C@H]1CNC(=O)c1c(OC)ccc(Br)c1OC,2.1,–
COc1cc(Cl)c(Cl)c(Cl)c1Cl,4.51,–
CC1CCCCC1O (stereo not given),1.82,–
ClC1=C(Cl)C2(Cl)C3CC=CC3C1(Cl)C2(Cl)Cl (stereo not given),5.57,–
O=C(Nc1ccccc1)n1cc(F)c(=O)[nH]c1=O,1.5,–
c1ccc2c(c1)-c1cccc3c1c-2cc1ccccc13,5.78,–
CCCCCCCc1ccccc1,5.37,–
Cn1cnc(I)c1[N+](=O)[O-],1.29,–
C=C(C)C1CCC(C)(O)C1C (stereo not given),2.87,–
Cc1ccc(C(C)C)c(Cl)c1Cl,5.5,–
CCNc1ncc(-c2ccncc2)cc1C#N,2.33,–
Nc1ncnc2c1ncn2Cc1ccccc1,1.7,–
CCCCC(=O)Oc1ccc(CC(N)C(=O)O)cc1 (stereo not given),0.07,–
c1ccc2c(c1)ccc1nc3ccc4ccccc4c3cc12,5.63,–
CCCCNC(=O)n1cc(F)c(=O)[nH]c1=O,–,3.58
COc1ccc2oc(N(N)CCC#N)nc2c1,0.98,–
CC(C(=O)O)c1ccc2oc(-c3ccc(Cl)cc3)nc2c1 (stereo not given),3.23,–

SMILES,logP,solubility [mM]
COc1ccc(C(N)=S)cc1,1.63,–
CC(C)NCc1ccccc1,1.83,–
c1ccc2cc3c4ccccc4c4ccccc4c3cc2c1,6.41,–
CCNc1nc(NC(C)C)nc(OC)n1,2.69,–
CCC(=O)OCC1OC(n2cnc3c(OC)ncnc32)C(OC(=O)CC)C1OC(=O)CC (stereo not given),2.75,–
NS(=O)(=O)c1nn2c(=Nc3ccc(Cl)cc3)snc2s1,3.63,–
CC(=O)OCN1C(=O)c2ccccc2C1=O,1.15,–
OC(CN1C2CCCC21)Cn1ccnc1 (stereo not given),0.37,–
CCCCOC(=O)C(N)Cc1ccc(O)cc1 (stereo not given),1.8,–
CN(C)c1ccc2cc3ccc(N(C)C)cc3nc2c1,–,2.64
NS(=O)(=O)c1cccc2ccccc12,1.55,–
Cc1cn(C2OC(CO)CC2F)c(=O)[nH]c1=O (stereo not given),-0.44,–
COC1=CC(=O)C=CC1=O,-0.06,–
CSc1nc(N=[N+]=[N-])nc(NC(C)C)n1,3,–
COc1ncnc2c1ncn2C1OC(COC(=O)c2ccccc2)C(O)C1OC(=O)c1ccccc1 (stereo not given),3.39,–
COc1ccccc1C=O,1.72,–
CCCCCCCCCCCCN1CC(C(=O)OC)CC1=O (stereo not given),4,–
O=C(c1ccccc1)n1ncc2c(=O)[nH]cnc21,1.2,–
O=c1nc[nH]c2c1ncn2[C@@H]1O[C@H](CO)C[C@@H]1F,-1.21,–
C[C@H](CCC(=O)NCC(=O)O)[C@H]1CC[C@H]2[C@@H]3[C@H](O)[C@H](O)[C@@H]4C[C@H](O)CC[C@]4(C)[C@H]3CC[C@]12C,1.9,–
COC(=O)[C@@H](N)Cc1ccc(O)c(O)c1,-0.21,–
Nc1nc(=O)n([C@@H]2CS[C@H](CO)O2)cc1F,-0.43,–
NS(=O)(=O)c1cc2c(cc1Cl)NC(C1CC3C=CC1C3)NS2(=O)=O (stereo not given),1.95,–
N#Cc1cc(-c2ccncc2)cnc1NCCCO,1.42,–
CCc1c(C(=O)O)c(=O)cnn1-c1ccc(Cl)cc1,-2.2,2510

# Source: the OPERA property sets (Mansouri et al. 2018)
